From patent EP4292827A1, “INK COMPOSITION, ARTICLE, AND PRODUCTION METHOD THEREFOR” (Zeon Corporation, priority 2021, dated 2022)
Like-named read-outs stand apart in the source and are kept apart here.

Key:
[1] = standard compounds with known logP values described in JIS 7260-117:2006, used for calibration curve; cited from earlier work

Row | Compound | chromatographic logP (physchem) | logP [1] | further results
1 | C=CC(=O)OCCCCCCOc1ccc(C(=O)Oc2ccc(/C=N/N=C/c3ccc(OC(=O)c4ccc(OCCCCCCOC(=O)C=C)cc4)c(C(=O)OC)c3)cc2)cc1 [Example X1] | – | – | chromatographic logP (physchem; hplc): 6.01
2 | C=CC(=O)OCCOc1ccc(-c2ccc(C#N)cc2)cc1 [Example X2] | 1.75 | – | –
3 | c1ccc(N(c2ccccc2)c2ccccc2)cc1 [Triphenylamine] | – | 5.7 | –
4 | CC(=O)Nc1ccccc1 [Acetanilide] | – | 1.0 | –

The next lines start with results.

Row | chromatographic logP (physchem) | Compound | logP [1] | further results
5 | 3.58 | C=CC(=O)OCCCCOC(=O)Oc1ccc(C(=O)Oc2ccc(C(=O)O[C@H]3CO[C@@H]4[C@H]3OC[C@H]4OC(=O)c3ccc(OC(=O)c4ccc(OC(=O)OCCCCOC(=O)C=C)cc4)cc3)cc2)cc1 [Example X3] | – | –
6 | 5.11 | C=CC(=O)OCCCCCCCCOC(=O)Oc1ccc(C(=O)Oc2ccc(OC(=O)c3ccc(OC(=O)OCCCCCCCCOC(=O)C=C)cc3)c(C)c2)cc1 [Example X4] | – | –
